Data set [1] is described as follows: Cytotoxicity against Drosophila melanogaster S2 cells assessed as cell viability up to 1 uM. Type of data set: cell-based.
For a further data set, the system named is 3T3-L1. As to the kind of experiment: Growth inhibition of mouse 3T3L1 cells at 10 uM after 3 days by Alamar blue assay. Type of data set: cell-based. Particulars: 3t3-l1, 72 h.
A further data set concerns K562. As to the kind of experiment: Growth inhibition of human K562 cells at 2 uM after 3 days by Alamar blue assay. Type of data set: functional, cell-based.
The subject of data set [2] is S2. As to the kind of experiment: Inhibition of heat shock-mediated activation of hs-Gal4/UAS-lacZ gene expression in Drosophila melanogaster S2 cells after 12 hrs by beta-galactosidase reporter assay. Type of data set: functional, cell-based.
Data set [3] has as its system S2. As to the kind of experiment: Inhibition of innate immune response in Drosophila melanogaster S2 cells assessed as reduction in DAP-type peptidoglycans-mediated activation of Dpt-LacZ gene expression at 1 uM after 12 hrs by beta-galactosidase reporter assay. Type of data set: functional, cell-based.
A short description of data set [4]: Cytotoxicity against Drosophila melanogaster S2 cells assessed as inhibition of beta-galactosidase gene expression. Type of data set: cell-based.
The next data set deals with HeLa. Kind of data set: Growth inhibition of human HeLa cells at 5 uM after 3 days by Alamar blue assay. Type of data set: functional, cell-based.
Data set [5] has as its system Dictyostelium discoideum. Kind of data set: Induction of stalk cell differentiation in Dictyostelium discoideum HM44 after 2 days by phase-contrast microscopy. Type of data set: functional, organism-based.
The test system of data set [6] is Dictyostelium discoideum. Kind of data set: Induction of stalk cell differentiation in Dictyostelium discoideum HM44 at […] after 2 days by phase-contrast microscopy. Type of data set: functional, organism-based.
The test system of data set [7] is Dictyostelium discoideum. Kind of data set: Induction of stalk cell differentiation in Dictyostelium discoideum HM44 at 1 nM after 2 days by phase-contrast microscopy. Type of data set: functional.

The structures appear in SMILES notation. Calls of active or inactive are those of the source. No cut-off for these calls is given here.

In the case of `CCCC(=O)c1c(OC)c(Cl)c2oc3c(Cl)c(OC)c(Cl)c(O)c3c2c1O`, the Activity entry in data set [1] is “Non-toxic”; in data set [4], “Non-toxic”; in the data set with Dictyostelium discoideum [5] it was “Dose-dependent effect”. In addition, the “growth inhibition (GI)” value in the data set on 3T3-L1 was “Toxic”. The “growth inhibition (GI)” value with K562 and with HeLa was “Active” in each case. Moreover, the inhibition result with S2 [2] is “Dose-dependent effect”. The inhibition entry in the data set with S2 [3] was “Active”.

For `CCCC(=O)c1c(OC)c(Cl)c2oc3c(Cl)c(OC)c(Cl)c(O)c3c2c1OC`, the outcome with Dictyostelium discoideum [6] was inactive. Further, the “growth inhibition (GI)” value with 3T3-L1 is on record as “Non-toxic”. For the same compound, the “growth inhibition (GI)” value with K562 and in the data set with HeLa was “inactive” throughout. Moreover, the inhibition entry in the data set on S2 [3] was “inactive”.

As to `CCCCCC(=O)c1c(O)c(Cl)c(OC)c(Cl)c1O`, the Activity in the data set with Dictyostelium discoideum [7] was greater than 80%.

Turning to `CCCCCC(=O)c1c(OC)c(Cl)c2oc3c(Cl)c(OC)c(Cl)c(O)c3c2c1O`, in the data set on Dictyostelium discoideum [6], the result was inactive. Besides, the Activity entry in data set [1] and in data set [4] was “Non-toxic” each time. In the data set on 3T3-L1, the “growth inhibition (GI)” value is “Toxic”. In addition, the “growth inhibition (GI)” value with K562 and with HeLa was “Active” each time. For the same compound, the inhibition entry in the data set with S2 [2] is “Dose-dependent effect”. Also, in the data set with S2 [3], the inhibition entry was “Active”.

The values above are taken from ChEMBL document CHEMBL2406949, “Novel chlorinated dibenzofurans isolated from the cellular slime mold, Polysphondylium filamentosum, and their biological activities” (Bioorg Med Chem, 2013).
